Experimental data as given in patent US20210317092A1 (BAYER PHARMA AKTIENGESELLSCHAFT, priority 2016, published 2021).
Read-outs that look alike come from different tables or passages of the source.

How the values were obtained:
[1] = target: T1, human Bradykinin B1 receptor (Homo sapiens, UniProt P46663); experiment: Calcium flux Assay (FLIPR) with recombinant CHO-K1 cells expressing human Bradykinin B1 receptor, in presence (hB1 IC50) or absence (hB1 free IC50) of 0.1% BSA; type: cell-based
T1 construct: host or cells: CHO-K1
T1 sequence (P46663 1-353): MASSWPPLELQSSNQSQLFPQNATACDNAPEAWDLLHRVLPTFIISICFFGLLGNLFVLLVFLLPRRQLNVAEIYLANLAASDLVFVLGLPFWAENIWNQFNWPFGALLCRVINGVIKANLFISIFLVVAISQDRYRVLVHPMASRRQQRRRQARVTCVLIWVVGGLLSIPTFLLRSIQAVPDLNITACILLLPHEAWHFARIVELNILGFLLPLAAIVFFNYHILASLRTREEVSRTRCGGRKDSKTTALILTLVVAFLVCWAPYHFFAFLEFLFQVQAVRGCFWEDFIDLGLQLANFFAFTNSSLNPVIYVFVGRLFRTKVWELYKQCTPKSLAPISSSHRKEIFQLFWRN

[2] = target: T2, native human Bradykinin B1 receptor (Homo sapiens, UniProt P46663); experiment: Calcium flux Assay (FLIPR) with human fibroblasts expressing Bradykinin B1 receptor (hB1 IMR-90); type: cell-based; details: IMR-90 human fibroblasts expressing native Bradykinin B1 receptor
T2 construct: which express native human Bradykinin B1 receptor after induction with human IL-10; Coriell Institute; host or cells: IMR-90 human foetal lung fibroblasts, cytokine-induced
T2 sequence (P46663 1-353): T1 sequence (P46663 1-353)
Protocol: Calcium flux Assay (FLIPR) with human fibroblasts expressing Bradykinin B1 receptor (hB1 IMR-90)
The Calcium flux Assay was carried out utilising IMR-90 human foetal lung fibroblasts (American Type Culture Collection, Rockville, Md.; and Coriell Institute, Camden, N.J.), which express native human Bradykinin B1 receptor after induction with human […].
The fibroblasts were cultured in complete growth media comprised of Dulbecco's modified Eagle's medium (DMEM; Sigma) containing 10% foetal bovine serum, 4 mM L-glutamine, and 1% nonessential amino acids. The cells were maintained in a humidified atmosphere with 5% CO2 at 37° C. and were sub-cultured at a ratio of 1:3, every other day.
For the assay, IMR-90 fibroblasts were harvested using TrypLE Express (GIBCO/Invitrogen) and seeded into 384-well plates (Corning Cellbinding Surface, Cat. 3683) at a density of 15000 cells/well. The following day, cells were treated with 0.35 ng/mL human […] in 10% FBS/MEM for 3h to up-regulate Bradykinin B1 receptor. Induced cells were loaded with fluorescent calcium indicator by incubation with 2.5 μM Fluo-4/AM (Invitrogen) at 37° C., 5% CO2 for 2 h in the presence of 2.5 mM probenecid in 1% FBS/MEM. Extracellular dye was removed by washing with assay buffer (2.5 mM probenecid and 0.1% BSA in 20 mM HEPES/HBSS without bicarbonate or phenol red, pH 7.5). Compound examples were assayed at 8 concentrations in triplicate. After addition of compound examples to the cell plate and incubation for 30 min at 28° C., the addition of Bradykinin B1 agonist Lys-(Des-Arg)-Bradykinin (Bachem, Brackley) at a final concentration of EC90 was carried out on the FLIPR instrument while continuously monitoring Ca^2+-dependent fluorescence at 538 nm. A peptide antagonist Lys-(Des-Arg-Leu)-Bradykinin (Bachem, Brackley) at 20 µM was used to determine the full inhibition as control. IC50 values were determined by the same way described for the FLIPR assay with recombinant cells.

[3] = in absence of 0.1% BSA, read-out: hB1 free IC50
[4] = in presence of 0.1% BSA, read-out: hB1 IC50

Row | IC50 [1, 3] [µM] | IC50 [1, 4] [µM] | IC50 [2] [µM] | SMILES
1 | 0.0296 | 0.0256 | 0.0272 | CCOc1ccc(-c2ccc(NC(=O)C3(c4cccc(F)c4)CC3)cc2-c2nnn[nH]2)cn1 [Example 80, N-[4-(6-ethoxypyridin-3-yl)-3-(1H-tetrazol-5-yl)phenyl]-1-(3-fluorophenyl) cyclopropane-carboxamide]
2 | 0.0291 | 0.0275 | 0.0212 | CCOc1ccc(-c2ccc(NC(=O)C3(c4ccc(F)cc4)CC3)cc2-c2nnn[nH]2)cn1 [Example 81, N-[4-(6-ethoxypyridin-3-yl)-3-(1H-tetrazol-5-yl)phenyl]-1-(4-fluorophenyl) cyclopropane-carboxamide]
3 | 0.0291 | 0.0333 | 0.0149 | CCOc1ccc(-c2ccc(NC(=O)C3(c4ccc(F)c(F)c4)CC3)cc2-c2nnn[nH]2)cn1 [Example 82, 1-(3,4-difluorophenyl)-N-[4-(6-ethoxypyridin-3-yl)-3-(1H-tetrazol-5-yl)phenyl] cyclopropane-carboxamide]
4 | 0.0605 | 0.0375 | 0.033 | CCOc1ccc(-c2ccc(NC(=O)C3(c4cc(F)ccc4F)CC3)cc2-c2nnn[nH]2)cn1 [Example 83, 1-(2,5-difluorophenyl)-N-[4-(6-ethoxypyridin-3-yl)-3-(1H-tetrazol-5-yl)phenyl] cyclopropane-carboxamide]
5 | 0.0403 | 0.0925 | 0.0274 | CCOc1ccc(-c2ccc(NC(=O)C3(c4ccc(OC)c(F)c4)CC3)cc2-c2nnn[nH]2)cn1 [Example 86, N-[4-(6-ethoxypyridin-3-yl)-3-(1H-tetrazol-5-yl)phenyl]-1-(3-fluoro-4-methoxyphenyl) cyclopropane-carboxamide]
6 | 0.452 | 0.174 | 0.161 | CCOc1ccc(-c2ccc(NC(=O)C3(C(F)(F)F)CC3)cc2-c2nnn[nH]2)cn1 [Example 91, N-[4-(6-ethoxypyridin-3-yl)-3-(1H-tetrazol-5-yl)phenyl]-1-(trifluoromethyl) cyclopropane-carboxamide]
7 | 0.0377 | 0.0398 | 0.0253 | CCOc1ccc(-c2ccc(NC(=O)C3(c4ccccc4F)CC3)cc2-c2nnn[nH]2)cn1 [Example 92, N-[4-(6-ethoxypyridin-3-yl)-3-(1H-tetrazol-5-yl)phenyl]-1-(2-fluorophenyl) cyclopropane-carboxamide]
8 |  | 0.0238 | 0.0251 | CCOc1ccc(-c2ccc(NC(=O)C3(c4cccc(C)c4)CC3)cc2-c2nnn[nH]2)cn1 [Example 94, N-[4-(6-ethoxypyridin-3-yl)-3-(1H-tetrazol-5-yl)phenyl]-1-(3-methylphenyl) cyclopropane-carboxamide]
9 | 0.00532 | 0.00658 | 0.0153 | CCCc1cccc(C2(C(=O)Nc3ccc(-c4ccc(OCC)nc4)c(-c4nnn[nH]4)c3)CC2)c1 [Example 96, N-[4-(6-ethoxypyridin-3-yl)-3-(1H-tetrazol-5-yl)phenyl]-1-(3-propylphenyl) cyclopropane-carboxamide]
10 |  | 0.138 | 0.101 | CCOc1ccc(-c2ccc(NC(=O)C3(c4cccc(C(C)(C)C)c4)CC3)cc2-c2nnn[nH]2)cn1 [Example 97, 1-(3-tert-butylphenyl)-N-[4-(6-ethoxypyridin-3-yl)-3-(1H-tetrazol-5-yl)phenyl] cyclopropane-carboxamide]
11 |  | 0.00867 | 0.00578 | CCOc1ccc(-c2ccc(NC(=O)C3(c4cccc(C(F)(F)F)c4)CC3)cc2-c2nnn[nH]2)cn1 [Example 98, N-[4-(6-ethoxypyridin-3-yl)-3-(1H-tetrazol-5-yl)phenyl]-1-[3-(trifluoromethyl)phenyl] cyclopropane-carboxamide]
12 |  | 0.024 | 0.0118 | CCOc1ccc(-c2ccc(NC(=O)C3(c4ccc(C)cc4)CC3)cc2-c2nnn[nH]2)cn1 [Example 99, N-[4-(6-ethoxypyridin-3-yl)-3-(1H-tetrazol-5-yl)phenyl]-1-(4-methylphenyl) cyclopropane-carboxamide]
13 | 0.00556 | 0.0202 | 0.00884 | CCOc1ccc(-c2ccc(NC(=O)C3(c4ccc(Cl)cc4)CC3)cc2-c2nnn[nH]2)cn1 [Example 100, 1-(4-chlorophenyl)-N-[4-(6-ethoxypyridin-3-yl)-3-(1H-tetrazol-5-yl)phenyl] cyclopropane-carboxamide]
14 | 0.0245 | 0.0387 | 0.0221 | CCOc1ccc(-c2ccc(NC(=O)C3(c4ccc(F)cc4F)CC3)cc2-c2nnn[nH]2)cn1 [Example 101, 1-(2,4-difluorophenyl)-N-[4-(6-ethoxypyridin-3-yl)-3-(1H-tetrazol-5-yl)phenyl] cyclopropane-carboxamide]
15 |  | 0.0348 | 0.021 | CCOc1ccc(-c2ccc(NC(=O)C3(c4ccc(F)c(C)c4)CC3)cc2-c2nnn[nH]2)cn1 [Example 102, N-[4-(6-ethoxypyridin-3-yl)-3-(1H-tetrazol-5-yl]phenyl]-1-(4-fluoro-3-methylphenyl) cyclopropane-carboxamide]
16 | 0.00454 | 0.0109 | 0.0107 | CCOc1ccc(-c2ccc(NC(=O)C3(c4ccc(C(F)(F)F)cc4)CC3)cc2-c2nnn[nH]2)cn1 [Example 105, N-[4-(6-ethoxypyridin-3-yl)-3-(1H-tetrazol-5-yl)phenyl]-1-[4-(trifluoromethyl)phenyl] cyclopropane-carboxamide]
17 | 0.00568 | 0.0127 | 0.011 | CCCOc1ccc(-c2ccc(NC(=O)C3(c4cccc(Cl)c4)CC3)cc2-c2nnn[nH]2)cn1 [Example 110, 1-(3-chlorophenyl)-N-[4-(6-propoxypyridin-3-yl)-3-(1H-tetrazol-5-yl)phenyl] cyclopropane-carboxamide]
18 | 0.00498 | 0.0166 | 0.0106 | CCCOc1ccc(-c2ccc(NC(=O)C3(c4ccc(C(F)(F)F)cc4)CC3)cc2-c2nnn[nH]2)cn1 [Example 111, N-[4-(6-propoxypyridin-3-yl)-3-(1H-tetrazol-5-yl)phenyl]-1-[4-(trifluoromethyl)phenyl] cyclopropane-carboxamide]
19 | 0.0162 | 0.0449 | 0.0204 | CCCOc1ccc(-c2ccc(NC(=O)C3(c4ccc(F)cc4F)CC3)cc2-c2nnn[nH]2)cn1 [Example 112, 1-(2,4-difluorophenyl)-N-[4-(6-propoxypyridin-3-yl)-3-(1H-tetrazol-5-yl)phenyl] cyclopropane-carboxamide]
20 | 0.00288 | 0.0227 | 0.0131 | CCOc1ccc(-c2ccc(NC(=O)C3(c4cccc(Cl)c4)CC3)cc2-c2nnn[nH]2)cc1OC [Example 119, 1-(3-chlorophenyl)-N-[4′-ethoxy-3′-methoxy-2-(1H-tetrazol-5-yl)biphenyl-4-yl]cyclopropane carboxamide]
21 |  | 0.0306 | 0.0251 | CCOc1ccc(-c2ccc(NC(=O)C3(c4cccc(C(F)(F)F)c4)CC3)cc2-c2nnn[nH]2)cc1OC [Example 120, N-[4′-ethoxy-3′-methoxy-2-(1H-tetrazol-5-yl)biphenyl-4-yl]-1-[3-(trifluoromethyl)phenyl] cyclopropane-carboxamide]
22 |  | 0.0282 | 0.0194 | CCOc1ccc(-c2ccc(NC(=O)C3(c4ccc(C(F)(F)F)cc4)CC3)cc2-c2nnn[nH]2)cc1OC [Example 121]
23 |  | 0.0565 | 0.0287 | CCOc1ccc(-c2ccc(NC(=O)C3(c4ccc(F)cc4F)CC3)cc2-c2nnn[nH]2)cc1OC [Example 122, 1-(2,4-difluorophenyl)-N-[4′-ethoxy-3′-methoxy-2-(1H-tetrazol-5-yl)biphenyl-4-yl]cyclopropane carboxamide]
24 | 0.0233 | 0.0138 | 0.026 | COCc1ccc(-c2ccc(NC(=O)C3(c4cccc(Cl)c4)CC3)cc2-c2nnn[nH]2)cn1 [Example 125, 1-(3-chlorophenyl)-N-{4-[6-(methoxymethyl)pyridin-3-yl]-3-(1H-tetrazol-5-yl)phenyl} cyclopropane-carboxamide]
